Assay results reported in ChEMBL document CHEMBL3046917, “Antimicrobial evaluation of 4-methylsulfanyl benzylidene/3-hydroxy benzylidene hydrazides and QSAR studies” (2012).
Converted amounts (≈) assume the structure as drawn.

Tests used:
Format in all cases: functional
[1] = system: Escherichia coli; assay: Bactericidal activity against Escherichia coli MTCC 1652
[2] = system: Candida albicans; assay: Fungistatic activity against Candida albicans MTCC 227 after 48 hr by tube dilution method
[3] = system: Aspergillus niger; assay: Fungistatic activity against Aspergillus niger MTCC 8189 after 7 days by tube dilution method
[4] = system: Aspergillus niger; assay: Fungicidal activity against Aspergillus niger MTCC 8189
[5] = system: Bacillus subtilis; assay: Bactericidal activity against Bacillus subtilis MTCC 2063
[6] = system: Staphylococcus aureus; assay: Ratio of MBC to MIC for Staphylococcus aureus MTCC 2901
[7] = system: Aspergillus niger; assay: Ratio of MFC to MIC for Aspergillus niger MTCC 8189
[8] = system: Escherichia coli; assay: Ratio of MBC to MIC for Escherichia coli MTCC 1652
[9] = system: Bacillus subtilis; assay: Ratio of MBC to MIC for Bacillus subtilis MTCC 2063
[10] = system: Staphylococcus aureus; assay: Bactericidal activity against Staphylococcus aureus MTCC 2901
[11] = system: Candida albicans; assay: Ratio of MFC to MIC for Candida albicans MTCC 227
[12] = system: Staphylococcus aureus; assay: Bacteriostatic activity against Staphylococcus aureus MTCC 2901 after 24 hr by tube dilution method
[13] = system: Candida albicans; assay: Fungicidal activity against Candida albicans MTCC 227
[14] = system: Escherichia coli; assay: Bacteriostatic activity against Escherichia coli MTCC 1652 after 24 hr by tube dilution method
[15] = system: Bacillus subtilis; assay: Bacteriostatic activity against Bacillus subtilis MTCC 2063 after 24 hr by tube dilution method

Structure (SMILES) | MBC [1] [µM] | -logMIC [2] | -logMIC [3] | MFC [4] [µM] | MBC [5] [µM] | Ratio [6] | Ratio [7] | Ratio [8] | Ratio [9] | MBC [10] [µM] | Ratio [11] | -logMIC [12] | MFC [13] [µM] | -logMIC [14] | -logMIC [15]
CSc1ccc(/C=N/NC(=O)/C=C/c2ccccc2)cc1 | 168 (≈ 49.8 µg/mL) | 1.37 | 1.37 | > 168 | > 168 | 3 | 3 | 3 | 3 | > 168 | 3 | 1.68 | 84 (≈ 24.9 µg/mL) | 1.68 | 1.68
C/C=C/C=C/C(=O)N/N=C/c1ccc(SC)cc1 | > 192 | 1.32 | 1.32 | 96 (≈ 25 µg/mL) | > 192 | 3 | 3 | 3 | 3 | 192 (≈ 50 µg/mL) | 3 | 1.02 | > 192 | 1.32 | 0.72
CCCCCCCCCCCC(=O)N/N=C/c1cccc(O)c1 | 157 (≈ 50 µg/mL) | 1.1 | 1.71 | 78 (≈ 24.8 µg/mL) | 157 (≈ 50 µg/mL) | 3 | 3 | 3 | 3 | > 157 | 3 | 0.98 | 157 (≈ 50 µg/mL) | 0.98 | 0.8
OC(Cn1cncn1)(Cn1cncn1)c1ccc(F)cc1F [FLUCONAZOLE] | – | 2.64 | 2.64 | 40 (≈ 12.3 µg/mL) | – | – | – | – | – | – | – | – | 40 (≈ 12.3 µg/mL) | – | –
CCCCCCCCCCCCCCCCCC(=O)N/N=C/c1ccc(SC)cc1 | 28 (≈ 12.1 µg/mL) | 0.7 | 0.7 | 115 (≈ 49.8 µg/mL) | > 115 | 3 | 3 | 3 | 3 | > 115 | 3 | 0.94 | > 115 | 1.65 | 0.64
COc1ccc(C(=O)N/N=C/c2ccc(SC)cc2)cc1OC | > 151 | 1.42 | 1.59 | > 151 | > 151 | 3 | 3 | 3 | 3 | 37 (≈ 12.2 µg/mL) | 3 | 1.72 | > 151 | 1.7 | 1.42
CCCCCCCCCCCCCCCC(=O)N/N=C/c1cccc(O)c1 | > 133 | 0.57 | 1.2 | > 133 | 133 (≈ 49.8 µg/mL) | 3 | 3 | 3 | 3 | > 133 | 3 | 0.99 | > 133 | 1.13 | 1.78
CCCCCCCCCCCC(=O)N/N=C/c1ccc(SC)cc1 | > 142 | 1.66 | 1.25 | 71 (≈ 24.7 µg/mL) | > 142 | 3 | 3 | 3 | 3 | > 142 | 3 | 1.3 | > 142 | 1.3 | 1.45
O=C(/C=C/c1ccccc1)N/N=C/c1cccc(O)c1 | 46 (≈ 12.2 µg/mL) | 1.93 | 1.93 | 93 (≈ 24.8 µg/mL) | 46 (≈ 12.2 µg/mL) | 3 | 3 | 3 | 3 | 46 (≈ 12.2 µg/mL) | 3 | 1.7 | 93 (≈ 24.8 µg/mL) | 1.32 | 1.93
CCCCCCCCCCCCCC(=O)N/N=C/c1cccc(O)c1 | > 144 | 0.54 | 1.2 | > 144 | 144 (≈ 49.9 µg/mL) | 3 | 3 | 3 | 3 | > 144 | 3 | 0.94 | > 144 | 0.94 | 2.04
CCCCCCCCCCCCCCCC(=O)N/N=C/c1ccc(SC)cc1 | 61 (≈ 24.7 µg/mL) | 0.61 | 0.61 | > 122 | 61 (≈ 24.7 µg/mL) | 3 | 3 | 3 | 3 | > 122 | 3 | 1.21 | > 122 | 1.81 | 2.11
C/C=C/C=C/C(=O)N/N=C/c1cccc(O)c1 | > 217 | 1.41 | 1.27 | 217 (≈ 50 µg/mL) | 217 (≈ 50 µg/mL) | 3 | 3 | 3 | 3 | > 217 | 3 | 0.96 | 217 (≈ 50 µg/mL) | 1.27 | 1.27
CSc1ccc(/C=N/NC(=O)c2ccc(C)cc2)cc1 | 88 (≈ 25 µg/mL) | 1.96 | 1.66 | 88 (≈ 25 µg/mL) | 44 (≈ 12.5 µg/mL) | 3 | 3 | 3 | 3 | > 176 | 3 | 1.66 | 88 (≈ 25 µg/mL) | 1.96 | 1.96
O=C(O)c1cn(C2CC2)c2cc(N3CCNCC3)c(F)cc2c1=O [CIPROFLOXACIN] | 19 (≈ 6.3 µg/mL) | – | – | – | 19 (≈ 6.3 µg/mL) | – | – | – | – | 19 (≈ 6.3 µg/mL) | – | 2.61 | – | 2.61 | 2.61
COc1ccc(C(=O)N/N=C/c2cccc(O)c2)cc1OC | > 166 | 1.98 | 1.98 | 41 (≈ 12.3 µg/mL) | > 166 | 3 | 3 | 3 | 3 | 83 (≈ 24.9 µg/mL) | 3 | 1.98 | 83 (≈ 24.9 µg/mL) | 1.38 | 1.38
CCCCCCCCCCCCCCCCCC(=O)N/N=C/c1cccc(O)c1 | > 124 | 0.6 | 1.51 | > 124 | 124 (≈ 49.9 µg/mL) | 3 | 3 | 3 | 3 | > 124 | 3 | 1.1 | > 124 | 1.3 | 1.51
O=C(N/N=C/c1cccc(O)c1)c1cc([N+](=O)[O-])cc([N+](=O)[O-])c1 | > 151 | 1.42 | 2.02 | 37 (≈ 12.2 µg/mL) | > 151 | 3 | 3 | 3 | 3 | > 151 | 3 | 1.12 | > 151 | 1.42 | 1.42
CCCCCCCCCCCCCC(=O)N/N=C/c1ccc(SC)cc1 | > 132 | 0.58 | 1.7 | > 132 | 33 (≈ 12.4 µg/mL) | 3 | 3 | 3 | 3 | > 132 | 3 | 0.58 | > 132 | 1.48 | 2.08
CSc1ccc(/C=N/NC(=O)c2cc([N+](=O)[O-])cc([N+](=O)[O-])c2)cc1 | 8 (≈ 2.88 µg/mL) | 0.86 | 2.06 | 69 (≈ 24.9 µg/mL) | 69 (≈ 24.9 µg/mL) | 3 | 3 | 3 | 3 | 69 (≈ 24.9 µg/mL) | 3 | 1.46 | > 138 | 2.06 | 2.06
CSc1ccc(/C=N/NC(=O)c2cccc(C)c2)cc1 | 176 (≈ 50.1 µg/mL) | 1.67 | 1.7 | 88 (≈ 25 µg/mL) | > 176 | 3 | 3 | 3 | 3 | > 176 | 3 | 1.55 | 176 (≈ 50.1 µg/mL) | 1.66 | 1.06
